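Briefly, cells in 96-well plates were exposed to five compound concentrations for 48 h, and endpoints were estimated by linear interpolation. At the TGI there is no net growth.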
Assays:
Test in all cases: DTP human tumour cell line panel, 48 h
CCRF-CEM leukemia = test system: CCRF-CEM leukemia
COLO 205 colon = test system: COLO 205 colon
NCI-H226 lung = test system: NCI-H226 lung
UACC-257 melanoma = test system: UACC-257 melanoma
OVCAR-5 ovarian = test system: OVCAR-5 ovarian
SK-MEL-2 melanoma = test system: SK-MEL-2 melanoma
DU-145 prostate = test system: DU-145 prostate
NCI-H23 lung = test system: NCI-H23 lung
MCF7 breast = test system: MCF7 breast
CAKI-1 renal = test system: CAKI-1 renal
SNB-19 CNS = test system: SNB-19 CNS
MALME-3M melanoma = test system: MALME-3M melanoma
UACC-62 melanoma = test system: UACC-62 melanoma
HT29 colon = test system: HT29 colon
HCT-116 colon = test system: HCT-116 colon
EKVX NSCLC = test system: EKVX NSCLC
SF-268 CNS = test system: SF-268 CNS
SNB-75 CNS = test system: SNB-75 CNS
SF-539 CNS = test system: SF-539 CNS
SR leukemia = test system: SR leukemia
SK-MEL-28 melanoma = test system: SK-MEL-28 melanoma
OVCAR-3 ovarian = test system: OVCAR-3 ovarian
MDA-MB-231 breast = test system: MDA-MB-231 breast
LOX IMVI melanoma = test system: LOX IMVI melanoma
NCI-H522 lung = test system: NCI-H522 lung
RXF 393 renal = test system: RXF 393 renal
NCI/ADR-RES ovarian = test system: NCI/ADR-RES ovarian
SK-OV-3 ovarian = test system: SK-OV-3 ovarian
ACHN renal = test system: ACHN renal
TK-10 renal = test system: TK-10 renal
MDA-MB-435 = test system: MDA-MB-435
OVCAR-8 ovarian = test system: OVCAR-8 ovarian
UO-31 renal = test system: UO-31 renal
K-562 leukemia = test system: K-562 leukemia
RPMI-8226 leukemia = test system: RPMI-8226 leukemia
SF-295 CNS = test system: SF-295 CNS
MDA-N = test system: MDA-N
786-0 renal = test system: 786-0 renal
U251 CNS = test system: U251 CNS
M14 melanoma = test system: M14 melanoma
PC-3 prostate = test system: PC-3 prostate
SW-620 colon = test system: SW-620 colon
IGROV1 ovarian = test system: IGROV1 ovarian
HS 578T breast = test system: HS 578T breast
OVCAR-4 ovarian = test system: OVCAR-4 ovarian
KM12 colon = test system: KM12 colon
BT-549 breast = test system: BT-549 breast
HCT-15 colon = test system: HCT-15 colon
A549 NSCLC = test system: A549 NSCLC
SN12C renal = test system: SN12C renal
HCC-2998 colon = test system: HCC-2998 colon
T-47D breast = test system: T-47D breast
NCI-H460 lung = test system: NCI-H460 lung
HOP-92 NSCLC = test system: HOP-92 NSCLC
SK-MEL-5 melanoma = test system: SK-MEL-5 melanoma
MOLT-4 leukemia = test system: MOLT-4 leukemia
HL-60(TB) leukemia = test system: HL-60(TB) leukemia

## CCCC(=O)Nc1cc(/C=C/C(=O)N2CC(CCl)c3ccc([N+](=O)[O-])cc32)n(C)c1 (stereo unspecified)
CCRF-CEM leukemia
  TGI: 29.4 µM
COLO 205 colon
  TGI: > 100 µM
NCI-H226 lung
  TGI: > 100 µM
UACC-257 melanoma
  TGI: > 100 µM
OVCAR-5 ovarian
  TGI: > 100 µM
SK-MEL-2 melanoma
  TGI: > 100 µM
DU-145 prostate
  TGI: > 100 µM
NCI-H23 lung
  TGI: > 100 µM
MCF7 breast
  TGI: > 100 µM
CAKI-1 renal
  TGI: > 100 µM
SNB-19 CNS
  TGI: > 100 µM
MALME-3M melanoma
  TGI: > 100 µM
UACC-62 melanoma
  TGI: > 100 µM
HT29 colon
  TGI: > 100 µM
HCT-116 colon
  TGI: > 100 µM
EKVX NSCLC
  TGI: > 100 µM
SF-268 CNS
  TGI: > 100 µM
SNB-75 CNS
  TGI: > 100 µM
SF-539 CNS
  TGI: > 100 µM
SR leukemia
  TGI: > 100 µM
SK-MEL-28 melanoma
  TGI: > 100 µM
OVCAR-3 ovarian
  TGI: > 100 µM
MDA-MB-231 breast
  TGI: > 100 µM
LOX IMVI melanoma
  TGI: > 100 µM
NCI-H522 lung
  TGI: > 100 µM
RXF 393 renal
  TGI: > 100 µM
NCI/ADR-RES ovarian
  TGI: > 100 µM
SK-OV-3 ovarian
  TGI: > 100 µM
ACHN renal
  TGI: > 100 µM
TK-10 renal
  TGI: > 100 µM
MDA-MB-435
  TGI: > 100 µM
OVCAR-8 ovarian
  TGI: > 100 µM
UO-31 renal
  TGI: > 100 µM
K-562 leukemia
  TGI: > 100 µM
RPMI-8226 leukemia
  TGI: > 100 µM
SF-295 CNS
  TGI: > 100 µM
MDA-N
  TGI: > 100 µM
786-0 renal
  TGI: > 100 µM
U251 CNS
  TGI: > 100 µM
M14 melanoma
  TGI: > 100 µM
PC-3 prostate
  TGI: > 100 µM
SW-620 colon
  TGI: > 100 µM
IGROV1 ovarian
  TGI: > 100 µM
HS 578T breast
  TGI: > 100 µM
OVCAR-4 ovarian
  TGI: > 100 µM
KM12 colon
  TGI: > 100 µM
BT-549 breast
  TGI: > 100 µM
HCT-15 colon
  TGI: > 100 µM
A549 NSCLC
  TGI: > 100 µM
SN12C renal
  TGI: > 100 µM
HCC-2998 colon
  TGI: > 100 µM
T-47D breast
  TGI: > 100 µM

## O=c1cccccc1O
CCRF-CEM leukemia
  TGI: 82.5 µM
COLO 205 colon
  TGI: > 100 µM
NCI-H460 lung
  TGI: > 100 µM
NCI-H226 lung
  TGI: > 100 µM
UACC-257 melanoma
  TGI: > 100 µM
OVCAR-5 ovarian
  TGI: > 100 µM
SK-MEL-2 melanoma
  TGI: > 100 µM
DU-145 prostate
  TGI: > 100 µM
NCI-H23 lung
  TGI: > 100 µM
MCF7 breast
  TGI: > 100 µM
CAKI-1 renal
  TGI: > 100 µM
SNB-19 CNS
  TGI: > 100 µM
MALME-3M melanoma
  TGI: > 100 µM
UACC-62 melanoma
  TGI: > 100 µM
HT29 colon
  TGI: > 100 µM
HCT-116 colon
  TGI: > 100 µM
EKVX NSCLC
  TGI: > 100 µM
SF-268 CNS
  TGI: > 100 µM
SNB-75 CNS
  TGI: > 100 µM
SR leukemia
  TGI: > 100 µM
SK-MEL-28 melanoma
  TGI: > 100 µM
OVCAR-3 ovarian
  TGI: > 100 µM
HOP-92 NSCLC
  TGI: > 100 µM
MDA-MB-231 breast
  TGI: > 100 µM
LOX IMVI melanoma
  TGI: > 100 µM
SK-MEL-5 melanoma
  TGI: > 100 µM
NCI-H522 lung
  TGI: > 100 µM
RXF 393 renal
  TGI: > 100 µM
NCI/ADR-RES ovarian
  TGI: > 100 µM
SK-OV-3 ovarian
  TGI: > 100 µM
ACHN renal
  TGI: > 100 µM
TK-10 renal
  TGI: > 100 µM
MDA-MB-435
  TGI: > 100 µM
OVCAR-8 ovarian
  TGI: > 100 µM
UO-31 renal
  TGI: > 100 µM
K-562 leukemia
  TGI: > 100 µM
RPMI-8226 leukemia
  TGI: > 100 µM
SF-295 CNS
  TGI: > 100 µM
MDA-N
  TGI: > 100 µM
786-0 renal
  TGI: > 100 µM
M14 melanoma
  TGI: > 100 µM
PC-3 prostate
  TGI: > 100 µM
SW-620 colon
  TGI: > 100 µM
IGROV1 ovarian
  TGI: > 100 µM
MOLT-4 leukemia
  TGI: > 100 µM
HS 578T breast
  TGI: > 100 µM
OVCAR-4 ovarian
  TGI: > 100 µM
KM12 colon
  TGI: > 100 µM
BT-549 breast
  TGI: > 100 µM
HCT-15 colon
  TGI: > 100 µM
A549 NSCLC
  TGI: > 100 µM
HCC-2998 colon
  TGI: > 100 µM
HL-60(TB) leukemia
  TGI: 43.7 µM
T-47D breast
  TGI: > 100 µM
